Measured values from ChEMBL document CHEMBL1671626, “In vitro profiling of ceftaroline against a collection of recent bacterial clinical isolates from across the United States” (2008).
≈ marks a conversion by molar mass, not a printed value.

Tests used:
Assay type in all cases: functional
[1] = tested on: Staphylococcus aureus; test: Antibacterial activity against methicillin-susceptible Staphylococcus aureus by CLSI M7-A7 broth microdilution method
[2] = tested on: Enterococcus faecalis; test: Antibacterial activity against vancomycin-susceptible Enterococcus faecalis assessed as resistant isolates by CLSI M7-A7 broth microdilution method
[3] = tested on: Streptococcus pyogenes; test: Antibacterial activity against erythromycin-susceptible Streptococcus pyogenes by CLSI M7-A7 broth microdilution method
[4] = tested on: Enterococcus faecium; test: Antibacterial activity against vancomycin-resistant Enterococcus faecium assessed as resistant isolates by CLSI M7-A7 broth microdilution method
[5] = tested on: Enterococcus faecium; test: Antibacterial activity against vancomycin-resistant Enterococcus faecium assessed as susceptible isolates by CLSI M7-A7 broth microdilution method
[6] = tested on: Streptococcus agalactiae; test: Antibacterial activity against erythromycin-nonsusceptible Streptococcus agalactiae by CLSI M7-A7 broth microdilution method
[7] = tested on: Staphylococcus aureus; test: Antibacterial activity against methicillin-resistant Staphylococcus aureus by CLSI M7-A7 broth microdilution method
[8] = tested on: Streptococcus agalactiae; test: Antibacterial activity against erythromycin-susceptible Streptococcus agalactiae assessed as susceptible isolates by CLSI M7-A7 broth microdilution method
[9] = tested on: Streptococcus viridans; test: Antibacterial activity against penicillin-susceptible Streptococcus viridans assessed as susceptible isolates by CLSI M7-A7 broth microdilution method
[10] = tested on: Streptococcus agalactiae; test: Antibacterial activity against erythromycin-susceptible Streptococcus agalactiae by CLSI M7-A7 broth microdilution method
[11] = tested on: Streptococcus viridans; test: Antibacterial activity against penicillin-susceptible Streptococcus viridans by CLSI M7-A7 broth microdilution method
[12] = tested on: Staphylococcus aureus; test: Antibacterial activity against coagulase-negative and oxacillin-resistant Staphylococcus aureus by CLSI M7-A7 broth microdilution method
[13] = tested on: Enterococcus faecalis; test: Antibacterial activity against vancomycin-resistant Enterococcus faecalis by CLSI M7-A7 broth microdilution method
[14] = tested on: Streptococcus pyogenes; test: Antibacterial activity against erythromycin-nonsusceptible Streptococcus pyogenes assessed as susceptible isolates by CLSI M7-A7 broth microdilution method
[15] = tested on: Pasteurella multocida; test: Antibacterial activity against Pasteurella multocida by CLSI M7-A7 broth microdilution method
[16] = tested on: Staphylococcus aureus; test: Antibacterial activity against methicillin-susceptible Staphylococcus aureus assessed as susceptible isolates by CLSI M7-A7 broth microdilution method
[17] = tested on: Staphylococcus aureus; test: Antibacterial activity against coagulase-negative and oxacillin-resistant Staphylococcus aureus assessed as susceptible isolates by CLSI M7-A7 broth microdilution method
[18] = tested on: Streptococcus pyogenes; test: Antibacterial activity against erythromycin-nonsusceptible Streptococcus pyogenes by CLSI M7-A7 broth microdilution method
[19] = tested on: Moraxella catarrhalis; test: Antibacterial activity against beta lactamase-positive Moraxella catarrhalis by CLSI M7-A7 broth microdilution method
[20] = tested on: Enterococcus faecalis; test: Antibacterial activity against vancomycin-susceptible Enterococcus faecalis assessed as susceptible isolates by CLSI M7-A7 broth microdilution method
[21] = tested on: Streptococcus viridans; test: Antibacterial activity against penicillin-nonsusceptible Streptococcus viridans by CLSI M7-A7 broth microdilution method
[22] = tested on: Staphylococcus aureus; test: Antibacterial activity against coagulase-negative and oxacillin-susceptible Staphylococcus aureus by CLSI M7-A7 broth microdilution method
[23] = tested on: Enterococcus faecium; test: Antibacterial activity against vancomycin-resistant Enterococcus faecium by CLSI M7-A7 broth microdilution method
[24] = tested on: Streptococcus pyogenes; test: Antibacterial activity against erythromycin-susceptible Streptococcus pyogenes assessed as susceptible isolates by CLSI M7-A7 broth microdilution method
[25] = tested on: Streptococcus viridans; test: Antibacterial activity against penicillin-nonsusceptible Streptococcus viridans assessed as resistant isolates by CLSI M7-A7 broth microdilution method
[26] = tested on: Streptococcus viridans; test: Antibacterial activity against penicillin-nonsusceptible Streptococcus viridans assessed as susceptible isolates by CLSI M7-A7 broth microdilution method
[27] = tested on: Streptococcus agalactiae; test: Antibacterial activity against erythromycin-nonsusceptible Streptococcus agalactiae assessed as susceptible isolates by CLSI M7-A7 broth microdilution method
[28] = tested on: Streptococcus pneumoniae; test: Antibacterial activity against penicillin-susceptible Streptococcus pneumoniae assessed as susceptible isolates by CLSI M7-A7 broth microdilution method
[29] = tested on: Enterococcus faecalis; test: Antibacterial activity against vancomycin-susceptible Enterococcus faecalis by CLSI M7-A7 broth microdilution method
[30] = tested on: Staphylococcus aureus; test: Antibacterial activity against coagulase-negative and oxacillin-susceptible Staphylococcus aureus assessed as susceptible isolates by CLSI M7-A7 broth microdilution method
[31] = tested on: Enterococcus faecalis; test: Antibacterial activity against vancomycin-resistant Enterococcus faecalis assessed as resistant isolates by CLSI M7-A7 broth microdilution method
[32] = tested on: Streptococcus viridans; test: Antibacterial activity against penicillin-susceptible Streptococcus viridans assessed as resistant isolates by CLSI M7-A7 broth microdilution method

CC(=O)NC[C@H]1CN(c2ccc(N3CCOCC3)c(F)c2)C(=O)O1 [LINEZOLID]
MIC50 [1]: 2 µg/mL (≈ 5.93 µM)
MIC90 [1]: 2 µg/mL (≈ 5.93 µM)
Activity [2]: 0%
MIC50 [3]: 1 µg/mL (≈ 2.96 µM)
MIC90 [3]: 1 µg/mL (≈ 2.96 µM)
Activity [4]: 0%
Activity [5]: 100%
MIC50 [6]: 1 µg/mL (≈ 2.96 µM)
MIC90 [6]: 1 µg/mL (≈ 2.96 µM)
MIC50 [7]: 2 µg/mL (≈ 5.93 µM)
MIC90 [7]: 2 µg/mL (≈ 5.93 µM)
Activity [8]: 100%
Activity [9]: 100%
MIC [10]: 1 µg/mL (≈ 2.96 µM)
MIC50 [10]: 1 µg/mL (≈ 2.96 µM)
MIC90 [10]: 1 µg/mL (≈ 2.96 µM)
MIC50 [11]: 1 µg/mL (≈ 2.96 µM)
MIC90 [11]: 1 µg/mL (≈ 2.96 µM)
MIC50 [12]: 1 µg/mL (≈ 2.96 µM)
MIC90 [12]: 2 µg/mL (≈ 5.93 µM)
MIC50 [13]: 2 µg/mL (≈ 5.93 µM)
MIC90 [13]: 2 µg/mL (≈ 5.93 µM)
Activity [14]: 100%
MIC50 [15]: 4 µg/mL (≈ 11.9 µM)
MIC90 [15]: > 4 µg/mL
Activity [16]: 100%
Activity [17]: 99.3%
MIC [18]: 1 µg/mL (≈ 2.96 µM)
MIC50 [18]: 1 µg/mL (≈ 2.96 µM)
MIC90 [18]: 1 µg/mL (≈ 2.96 µM)
MIC50 [19]: 4 µg/mL (≈ 11.9 µM)
MIC90 [19]: 4 µg/mL (≈ 11.9 µM)
Activity [20]: 100%
MIC50 [21]: 1 µg/mL (≈ 2.96 µM)
MIC90 [21]: 1 µg/mL (≈ 2.96 µM)
MIC50 [22]: 1 µg/mL (≈ 2.96 µM)
MIC90 [22]: 2 µg/mL (≈ 5.93 µM)
MIC50 [23]: 2 µg/mL (≈ 5.93 µM)
MIC90 [23]: 2 µg/mL (≈ 5.93 µM)
Activity [24]: 100%
Activity [25]: 0%
Activity [26]: 100%
Activity [27]: 100%
Activity [28]: 100%
MIC50 [29]: 2 µg/mL (≈ 5.93 µM)
MIC90 [29]: 2 µg/mL (≈ 5.93 µM)
Activity [30]: 100%
Activity [31]: 0%
Activity [32]: 0%
